Assay results: PMC11795093, “Investigation of the threonine metabolism of Echinococcus multilocularis: The threonine dehydrogenase as a potential drug target in alveolar echinococcosis” (International Journal for Parasitology: Drugs and Drug …, 2025)

T1: recEmTDH (Echinococcus multilocularis, UniProt A0A068Y017)
T1 construct: gene EmuJ_000511900; E. coli BL21; 979 bp insert from metacestode vesicle cDNA
T1 sequence (A0A068Y017 31-362): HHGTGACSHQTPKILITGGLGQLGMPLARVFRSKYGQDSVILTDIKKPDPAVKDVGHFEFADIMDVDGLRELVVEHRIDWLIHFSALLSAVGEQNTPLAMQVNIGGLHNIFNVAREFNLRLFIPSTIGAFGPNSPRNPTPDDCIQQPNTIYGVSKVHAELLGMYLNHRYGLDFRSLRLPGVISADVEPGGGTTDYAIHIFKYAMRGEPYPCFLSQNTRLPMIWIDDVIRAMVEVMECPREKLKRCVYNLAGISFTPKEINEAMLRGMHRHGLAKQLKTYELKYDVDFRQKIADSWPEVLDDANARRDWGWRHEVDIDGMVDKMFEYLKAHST

B1: recEmTDH (Echinococcus multilocularis) (protein)
chain: T1 sequence (A0A068Y017 31-362)
notes: E. coli BL21; 979 bp insert from metacestode vesicle cDNA

Assays:
recMmTDH [1] = molecular target: T2, recMmTDH (Mus musculus, UniProt Q8K3F7); test: NADH formation, absorbance at […] nm; type: biochemical; details: 0-16 mM L-Thr, 10 mM NAD+; pH 8.4; 37 °C
T2 construct: gene Tdh; predicted mitochondrial transfer peptide removed; E. coli BL21; synthetic gene, 991 bp insert
T2 sequence (Q8K3F7 46-373): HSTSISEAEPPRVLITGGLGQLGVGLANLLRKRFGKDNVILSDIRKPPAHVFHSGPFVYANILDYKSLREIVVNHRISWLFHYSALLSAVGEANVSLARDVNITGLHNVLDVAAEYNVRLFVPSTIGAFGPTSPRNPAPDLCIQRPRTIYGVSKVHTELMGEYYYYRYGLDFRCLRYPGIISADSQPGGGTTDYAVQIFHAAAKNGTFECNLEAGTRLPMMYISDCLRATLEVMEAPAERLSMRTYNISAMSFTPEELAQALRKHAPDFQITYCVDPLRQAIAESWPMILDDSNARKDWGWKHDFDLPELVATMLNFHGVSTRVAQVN

recMmTDH [2] = molecular target: T2, recMmTDH; test: NADH formation, absorbance at […] nm, relative to DMSO control; type: biochemical; details: 20 μM compound; 2 mM L-Thr, 3 mM NAD+; pH 8.4; 37 °C
recEmTDH = molecular target: T1, recEmTDH; test: as above; type: biochemical; details: read-out: residual activity at 20 μM
purified protein [3] = substrate: C[C@@H](O)[C@H](N)C(=O)O; test: purified protein; type: biochemical, Echinococcus multilocularis; details: 2 mM NAD+, 80 mM Tris-HCl pH 8.4, 37 °C
purified protein [4] = substrate: NC(=O)c1ccc[n+]([C@@H]2O[C@H](COP(=O)(O)OP(=O)(O)OC[C@H]3O[C@@H](n4cnc5c(N)ncnc54)[C@H](O)[C@@H]3O)[C@@H](O)[C@H]2O)c1; test: purified protein; type: biochemical, Echinococcus multilocularis; details: 16 mM L-Thr, 80 mM Tris-HCl pH 8.4, 37 °C, varied: cofactor

Molecule	residual activity at 20 μM (recMmTDH [2])	remaining activity at 20 µM (recEmTDH)	also measured
C[C@@H](O)[C@H](N)C(=O)O [L-Thr]			NADH formation, absorbance at 340 nm (recMmTDH [1]): we recombinantly expressed MmTDH (S5 File) and this protein was also enzymatically active
O=c1c(O)c(-c2ccc(O)c(O)c2)oc2cc(O)cc(O)c12 [quercetin]	All tested compounds, except QC4, inhibited recMmTDH activity	85.5 ± 2.8%	
CCN(CC)C(=S)SSC(=S)N(CC)CC [disulfiram]	All tested compounds, except QC4, inhibited recMmTDH activity	41.2 ± 0.8%	
C[n+]1cc2c3c(ccc2c2ccc4cc5c(cc4c21)OCO5)OCO3 [sanguinarine]	All tested compounds, except QC4, inhibited recMmTDH activity	64 ± 4%	
O=C(NCc1ccccc1)c1ccc2c(=O)n(-c3cccc(C(F)(F)F)c3)c(=S)[nH]c2c1 [QC1]	All tested compounds, except QC4, inhibited recMmTDH activity		
O=C(O)c1ccc2c(=O)n(-c3cccc(C(F)(F)F)c3)c(=S)[nH]c2c1 [QC7]	All tested compounds, except QC4, inhibited recMmTDH activity		
O=C(NCCCN1CCCC1=O)c1ccc2c(=O)n(-c3cccc(C(F)(F)F)c3)c(=S)[nH]c2c1 [QC5]	All tested compounds, except QC4, inhibited recMmTDH activity		
CN(Cc1ccccc1)C(=O)c1ccc2c(=O)n(-c3cccc(C(F)(F)F)c3)c(=S)[nH]c2c1 [QC6]	All tested compounds, except QC4, inhibited recMmTDH activity		
O=c1c(O)c(-c2cc(O)c(O)c(O)c2)oc2cc(O)cc(O)c12 [myricetin]	All tested compounds, except QC4, inhibited recMmTDH activity	74.8 ± 1.7%	
COc1ccc(NC(=O)c2ccc3c(=O)n(-c4cc(C(F)(F)F)ccc4Cl)c(=S)[nH]c3c2)cc1OC [QC2]	All tested compounds, except QC4, inhibited recMmTDH activity	81.3 ± 1.8%	
COc1ccccc1CNC(=O)c1ccc2c(=O)n(-c3cccc(C(F)(F)F)c3)c(=S)[nH]c2c1 [QC3]	All tested compounds, except QC4, inhibited recMmTDH activity		
B1			Km (purified protein [3]): 8.8 ± 0.05 mM; Km (purified protein [4]): 0.8 ± 0.01 mM
